In PMC8865919, “Penicillin Binding Proteins and β-Lactamases of Mycobacterium tuberculosis: Reexamination of the Historical Paradigm” (mSphere, 2022):

How the values were obtained:
Assay in all cases: BOCILLIN FL fluorescence inhibition, SDS-PAGE
Format in all cases: binding
Details in all cases: read-out: FIC50
PbpB (Rv2163c) = PbpB (Rv2163c) (Mycobacterium tuberculosis, UniProt L0T911)
Text: BOCILLIN FL fluorescence inhibition, SDS-PAGE on PbpB (Rv2163c)

DacB (Rv3627c) = DacB (Rv3627c) (Mycobacterium tuberculosis, UniProt O06380)
DacB (Rv3627c), sequence (O06380 35-461): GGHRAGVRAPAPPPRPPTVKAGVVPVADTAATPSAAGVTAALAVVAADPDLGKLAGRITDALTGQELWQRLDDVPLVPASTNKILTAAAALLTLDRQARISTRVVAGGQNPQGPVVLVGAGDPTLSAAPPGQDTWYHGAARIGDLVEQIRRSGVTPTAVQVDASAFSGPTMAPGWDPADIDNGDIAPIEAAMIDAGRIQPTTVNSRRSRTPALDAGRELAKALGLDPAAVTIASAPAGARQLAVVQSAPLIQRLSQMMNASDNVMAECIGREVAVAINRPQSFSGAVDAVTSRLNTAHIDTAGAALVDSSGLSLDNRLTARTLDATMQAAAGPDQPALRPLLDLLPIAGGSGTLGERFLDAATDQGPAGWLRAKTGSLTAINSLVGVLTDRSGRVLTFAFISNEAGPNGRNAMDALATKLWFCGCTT
Text: BOCILLIN FL fluorescence inhibition, SDS-PAGE on DacB (Rv3627c)

Rv1730c = Rv1730c (Mycobacterium tuberculosis, UniProt P71988)
Rv1730c, sequence (P71988 entry or part of it): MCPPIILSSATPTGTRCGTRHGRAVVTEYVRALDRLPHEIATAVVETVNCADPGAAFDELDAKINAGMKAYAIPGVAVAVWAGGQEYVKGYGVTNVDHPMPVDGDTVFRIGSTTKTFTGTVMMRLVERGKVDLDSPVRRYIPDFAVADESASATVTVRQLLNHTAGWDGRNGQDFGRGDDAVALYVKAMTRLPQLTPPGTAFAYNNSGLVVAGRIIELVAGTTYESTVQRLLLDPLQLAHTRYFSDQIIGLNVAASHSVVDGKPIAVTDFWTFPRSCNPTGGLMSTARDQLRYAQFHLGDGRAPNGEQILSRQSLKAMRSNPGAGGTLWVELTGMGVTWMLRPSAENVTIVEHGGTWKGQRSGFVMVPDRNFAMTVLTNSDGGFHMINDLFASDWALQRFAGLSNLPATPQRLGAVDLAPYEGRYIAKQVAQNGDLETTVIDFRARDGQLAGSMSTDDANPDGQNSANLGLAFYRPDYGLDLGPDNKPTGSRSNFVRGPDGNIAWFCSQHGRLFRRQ
Text: BOCILLIN FL fluorescence inhibition, SDS-PAGE on Rv1730c

DacB1 (Rv3330) = DacB1 (Rv3330) (Mycobacterium tuberculosis, UniProt O53380)
DacB1 (Rv3330), sequence (O53380 33-374): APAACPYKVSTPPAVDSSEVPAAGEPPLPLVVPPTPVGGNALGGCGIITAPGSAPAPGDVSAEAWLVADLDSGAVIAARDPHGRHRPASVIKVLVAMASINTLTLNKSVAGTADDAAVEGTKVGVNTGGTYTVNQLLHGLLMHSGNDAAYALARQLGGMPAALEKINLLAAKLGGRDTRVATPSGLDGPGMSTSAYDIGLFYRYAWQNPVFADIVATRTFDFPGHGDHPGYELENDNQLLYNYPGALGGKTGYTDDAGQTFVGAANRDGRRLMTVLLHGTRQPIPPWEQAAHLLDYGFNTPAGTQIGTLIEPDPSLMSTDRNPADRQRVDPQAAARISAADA
Text: BOCILLIN FL fluorescence inhibition, SDS-PAGE on DacB1 (Rv3330)

PbpA (Rv0016c) = PbpA (Rv0016c) (Mycobacterium tuberculosis, UniProt P9WKD1)
PbpA (Rv0016c), sequence (P9WKD1 29-491): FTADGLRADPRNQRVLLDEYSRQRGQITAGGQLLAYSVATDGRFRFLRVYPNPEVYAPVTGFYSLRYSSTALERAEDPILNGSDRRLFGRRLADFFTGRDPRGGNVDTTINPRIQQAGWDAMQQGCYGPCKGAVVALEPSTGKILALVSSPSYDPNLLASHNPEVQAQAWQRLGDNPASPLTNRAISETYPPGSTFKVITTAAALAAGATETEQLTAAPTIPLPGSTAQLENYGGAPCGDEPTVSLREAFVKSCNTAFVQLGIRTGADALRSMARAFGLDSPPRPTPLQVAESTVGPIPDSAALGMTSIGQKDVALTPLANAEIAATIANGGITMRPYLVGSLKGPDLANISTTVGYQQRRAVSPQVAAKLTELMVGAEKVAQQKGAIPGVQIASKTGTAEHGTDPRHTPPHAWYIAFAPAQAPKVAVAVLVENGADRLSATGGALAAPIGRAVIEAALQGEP
Text: BOCILLIN FL fluorescence inhibition, SDS-PAGE on PbpA (Rv0016c)

PonA1 (Rv0050) = PonA1 (Rv0050) (Mycobacterium tuberculosis, UniProt P71707)
PonA1 (Rv0050), sequence (P71707 160-820): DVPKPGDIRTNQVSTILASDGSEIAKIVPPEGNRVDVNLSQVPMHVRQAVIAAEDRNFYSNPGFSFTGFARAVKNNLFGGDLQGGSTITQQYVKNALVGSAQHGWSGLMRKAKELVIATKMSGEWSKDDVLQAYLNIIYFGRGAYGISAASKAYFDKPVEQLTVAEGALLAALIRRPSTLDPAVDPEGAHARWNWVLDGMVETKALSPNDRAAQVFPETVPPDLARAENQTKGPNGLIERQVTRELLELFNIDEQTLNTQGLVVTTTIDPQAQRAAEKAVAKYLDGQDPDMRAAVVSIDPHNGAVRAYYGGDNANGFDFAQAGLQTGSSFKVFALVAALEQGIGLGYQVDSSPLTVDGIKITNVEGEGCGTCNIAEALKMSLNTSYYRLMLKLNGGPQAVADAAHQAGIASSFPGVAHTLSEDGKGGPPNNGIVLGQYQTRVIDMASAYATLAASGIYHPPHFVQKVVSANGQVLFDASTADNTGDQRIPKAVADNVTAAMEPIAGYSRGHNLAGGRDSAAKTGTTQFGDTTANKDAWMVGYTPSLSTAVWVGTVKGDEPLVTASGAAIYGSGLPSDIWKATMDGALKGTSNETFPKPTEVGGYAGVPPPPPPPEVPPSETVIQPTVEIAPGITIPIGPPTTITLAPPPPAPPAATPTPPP
Text: BOCILLIN FL fluorescence inhibition, SDS-PAGE on PonA1 (Rv0050)

DacB2 (Rv2911) = DacB2 (Rv2911) (Mycobacterium tuberculosis, UniProt I6Y204)
DacB2 (Rv2911), sequence (I6Y204 23-291): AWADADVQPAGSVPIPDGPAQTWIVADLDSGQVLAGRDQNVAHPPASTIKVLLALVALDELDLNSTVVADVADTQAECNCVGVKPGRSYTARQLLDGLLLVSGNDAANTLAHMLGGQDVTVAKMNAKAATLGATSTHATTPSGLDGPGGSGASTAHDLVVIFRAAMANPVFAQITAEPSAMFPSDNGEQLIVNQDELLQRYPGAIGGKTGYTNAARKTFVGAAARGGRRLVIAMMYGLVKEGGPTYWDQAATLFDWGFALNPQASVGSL
Text: BOCILLIN FL fluorescence inhibition, SDS-PAGE on DacB2 (Rv2911)

PonA2 (Rv3682) = PonA2 (Rv3682) (Mycobacterium tuberculosis, UniProt I6YGX2)
PonA2 (Rv3682), sequence (I6YGX2 entry or part of it): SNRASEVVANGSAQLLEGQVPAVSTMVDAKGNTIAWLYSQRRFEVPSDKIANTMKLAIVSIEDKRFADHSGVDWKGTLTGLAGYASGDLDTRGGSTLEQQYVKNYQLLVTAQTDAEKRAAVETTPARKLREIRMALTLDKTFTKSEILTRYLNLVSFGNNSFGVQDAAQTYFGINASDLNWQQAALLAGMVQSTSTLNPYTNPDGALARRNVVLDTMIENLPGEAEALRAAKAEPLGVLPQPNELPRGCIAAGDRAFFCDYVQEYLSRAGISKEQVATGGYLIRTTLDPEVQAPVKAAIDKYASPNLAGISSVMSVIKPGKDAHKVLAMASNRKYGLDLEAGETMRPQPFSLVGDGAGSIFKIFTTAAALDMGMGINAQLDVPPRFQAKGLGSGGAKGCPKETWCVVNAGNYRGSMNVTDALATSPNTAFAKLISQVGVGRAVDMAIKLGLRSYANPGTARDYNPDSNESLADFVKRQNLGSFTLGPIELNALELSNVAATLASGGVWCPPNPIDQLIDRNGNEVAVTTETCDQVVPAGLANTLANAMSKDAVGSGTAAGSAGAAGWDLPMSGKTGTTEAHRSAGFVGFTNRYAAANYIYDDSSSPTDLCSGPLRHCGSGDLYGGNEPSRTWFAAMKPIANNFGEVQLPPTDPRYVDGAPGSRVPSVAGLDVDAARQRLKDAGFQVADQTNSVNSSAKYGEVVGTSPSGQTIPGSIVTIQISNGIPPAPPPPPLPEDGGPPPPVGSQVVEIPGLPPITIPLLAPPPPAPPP
Text: BOCILLIN FL fluorescence inhibition, SDS-PAGE on PonA2 (Rv3682)

PbpB (Rv2163c), sequence (L0T911 112-679): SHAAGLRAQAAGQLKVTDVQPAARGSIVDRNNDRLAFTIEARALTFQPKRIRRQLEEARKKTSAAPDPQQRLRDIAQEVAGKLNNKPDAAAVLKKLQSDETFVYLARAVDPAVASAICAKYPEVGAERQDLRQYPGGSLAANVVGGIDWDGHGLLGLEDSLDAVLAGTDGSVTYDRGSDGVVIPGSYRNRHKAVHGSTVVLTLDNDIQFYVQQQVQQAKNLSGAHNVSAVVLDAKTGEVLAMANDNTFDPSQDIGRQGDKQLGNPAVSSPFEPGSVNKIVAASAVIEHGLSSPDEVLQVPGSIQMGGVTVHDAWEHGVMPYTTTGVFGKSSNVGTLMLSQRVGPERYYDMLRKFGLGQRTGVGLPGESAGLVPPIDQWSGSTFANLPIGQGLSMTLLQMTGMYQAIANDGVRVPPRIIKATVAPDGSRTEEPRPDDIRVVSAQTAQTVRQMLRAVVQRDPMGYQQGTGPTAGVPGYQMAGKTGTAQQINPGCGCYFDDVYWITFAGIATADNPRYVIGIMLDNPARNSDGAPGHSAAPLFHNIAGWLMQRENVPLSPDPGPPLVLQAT

## CC1(C)S[C@@H]2[C@H](NC(=O)[C@H](N)c3ccccc3)C(=O)N2[C@H]1C(=O)O [Ampicillin]
PbpB (Rv2163c)
  IC50: 1.5 ± 0.4 µM

## C[C@@H](O)[C@H]1C(=O)N2C(C(=O)[O-])=C(SC3Cn4cnc[n+]4C3)[C@H](C)[C@H]12 (some centres unmarked) [Biapenem]
DacB (Rv3627c)
  IC50: 3.5 ± 0.2 µM
Rv1730c
  IC50: 569 ± 72.1 µM
DacB1 (Rv3330)
  IC50: 18.1 ± 3 µM

## C=CC1=C(C(=O)O)N2C(=O)[C@@H](NC(=O)/C(=N\O)c3csc(N)n3)[C@H]2SC1 [Cefdinir]
PbpA (Rv0016c)
  IC50: 13.8 ± 6.9 µM

## CO[C@@]1(NC(=O)Cc2cccs2)C(=O)N2C(C(=O)O)=C(COC(N)=O)CS[C@@H]21 [Cefoxitin]
PonA1 (Rv0050)
  IC50: 25.1 ± 2.5 µM
DacB1 (Rv3330)
  IC50: 15.6 ± 1.2 µM
DacB2 (Rv2911)
  IC50: 8.1 ± 2.4 µM

## C[C@@H](O)[C@H]1C(=O)N2C(C(=O)O)=C([C@H]3CCCO3)S[C@H]12 [Faropenem]
PonA1 (Rv0050)
  IC50: 27.9 ± 3.5 µM
Rv1730c
  IC50: 89.8 ± 12.3 µM

## C[C@@H](O)[C@H]1C(=O)N2C(C(=O)O)=C(SCCN=CN)C[C@H]12 [Imipenem]
PonA2 (Rv3682)
  IC50: 3 ± 0.6 µM
DacB1 (Rv3330)
  IC50: 4.5 ± 1.4 µM
DacB2 (Rv2911)
  IC50: 11.1 ± 3.2 µM

## C[C@@H](O)[C@H]1C(=O)N2C(C(=O)O)=C(S[C@@H]3CN[C@H](C(=O)N(C)C)C3)[C@H](C)[C@H]12 [Meropenem]
PbpB (Rv2163c)
  IC50: 4.1 ± 0.2 µM
DacB (Rv3627c)
  IC50: 1.5 ± 0.2 µM
Rv1730c
  IC50: 838 ± 103 µM

## COc1cccc(OC)c1C(=O)N[C@@H]1C(=O)N2[C@@H]1SC(C)(C)[C@@H]2C(=O)O [Methicillin]
PbpA (Rv0016c)
  IC50: 11.6 ± 2.6 µM
